The source of these data is the supplement of paper PMC10307832.

Common to all, as to assay: relative viability (nuclei count vs DMSO), 5 days (fraction); higher = more cells survive
Compound in experiment [1]: C1CC(C2=C(C1)C3=C(N2)C=CC(=C3)Cl)C(=O)N [Selisistat] + N=C(N)NC(=N)NCCc1ccccc1 [Phenformin] (partner 250 µM)
The gist of the method:
(§1)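 Values are medians from duplicate plates. Each reflects relative viability, defined as the nuclei count of treated wells over that of vehicle wells. Lung cancer cell lines in 1536-well plates were pin-tool dosed one day after seeding with one drug alone or with a fixed anchor-drug dose plus five library-drug doses (not always all listed) in √10 steps, then fixed, stained and imaged at 4× after 5 days.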

Compound in experiment [2]: c1ccc2c(CCNc3ccc(Nc4ccncc4)cc3)c[nH]c2c1 [Serdemetan] + COc1cc2c(Oc3ccc(NC(=O)C4(C(=O)Nc5ccc(F)cc5)CC4)cc3F)ccnc2cc1OCCCN1CCOCC1 [Foretinib] (partner 0.25 µM)
A digest of the protocol:
as §1

Compound in experiment [3]: C1CC(C2=C(C1)C3=C(N2)C=CC(=C3)Cl)C(=O)N [Selisistat] + CC(C)C[C@H](NC(=O)[C@H](Cc1ccccc1)NC(=O)c1cnccn1)B(O)O [Bortezomib] (partner 0.002 µM)
The gist of the method:
as §1

Compound in experiment [4]: C1CC(C2=C(C1)C3=C(N2)C=CC(=C3)Cl)C(=O)N [Selisistat] + COc1cccc2cc(-c3nc([C@H]4CC[C@H](C(=O)O)CC4)n4ncnc(N)c34)[nH]c12 [OSI-027] (partner 0.5 µM)
The gist of the method:
as §1

Regarding UMC-11, the relative viability in experiment [1] (first compound 0.4 µM) came out at 0.337; in experiment [1] (first compound 1.265 µM) it was 0.303; in experiment [1] (first compound 4 µM), 0.302; in experiment [1] (first compound 12.65 µM) it was 0.288; in experiment [1] (first compound 40 µM), 0.303; in experiment [2] (first compound 0.04 µM), 0.919. Moreover, the relative viability in experiment [2] (first compound 0.1265 µM) came out at 1.02; in experiment [2] (first compound 4 µM) it was 0.828; in experiment [3] (first compound 0.4 µM), 0.494; in experiment [3] (first compound 1.265 µM) it was 0.71; in experiment [3] (first compound 4 µM), 0.738; in experiment [3] (first compound 12.65 µM) it was 0.671. Further, the relative viability in experiment [3] (first compound 40 µM) amounted to 0.626; in experiment [4] (first compound 0.4 µM), 0.498; in experiment [4] (first compound 1.265 µM), 0.398; in experiment [4] (first compound 4 µM), 0.385; in experiment [4] (first compound 12.65 µM) it was 0.476; in experiment [4] (first compound 40 µM) it was 0.46.
